Results reported in PMC7714403 (JCI Insight, 2020).
Like-named read-outs stand apart in the source and are kept apart here.

Key:
IKKe, TBK1 = experiment: KiNativ, OCI cells live cell; format: cell-based, human; conditions: labeling site Lys2, peptide DIKPGNIMR
JAK2 domain2 = target: T1, JAK2 domain2 (Homo sapiens, UniProt O60674); experiment: KiNativ, OCI cells live cell; format: cell-based; conditions: labeling site Activation Loop, peptide IGDFGLTKVLPQDKEYYK
T1 construct: JAK2 domain2

MAST3 = MAST3 (Homo sapiens, UniProt O60307); experiment: KiNativ, OCI cells live cell; format: cell-based; conditions: 2 h, labeling site Lys2, peptide […]
NEK3 = NEK3 (Homo sapiens, UniProt P51956); experiment: KiNativ, OCI cells live cell; format: cell-based; conditions: 2 h, labeling site Activation Loop, peptide […]
Sequence of NEK3 (P51956 whole entry, the tested form may be a part): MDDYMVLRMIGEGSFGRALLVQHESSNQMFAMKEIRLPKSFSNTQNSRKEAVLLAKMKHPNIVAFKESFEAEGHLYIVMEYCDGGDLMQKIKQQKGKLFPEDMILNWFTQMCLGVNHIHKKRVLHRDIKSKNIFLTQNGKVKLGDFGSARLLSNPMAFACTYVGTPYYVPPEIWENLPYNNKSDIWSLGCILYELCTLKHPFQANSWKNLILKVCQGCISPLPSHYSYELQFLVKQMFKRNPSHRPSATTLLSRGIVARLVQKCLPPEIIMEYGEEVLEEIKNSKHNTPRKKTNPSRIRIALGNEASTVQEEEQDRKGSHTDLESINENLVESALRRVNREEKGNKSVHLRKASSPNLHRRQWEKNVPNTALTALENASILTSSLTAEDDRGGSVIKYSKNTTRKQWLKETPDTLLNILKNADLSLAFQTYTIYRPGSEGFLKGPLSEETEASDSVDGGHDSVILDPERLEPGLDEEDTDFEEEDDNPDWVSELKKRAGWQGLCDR

GCN2 domain2 = target: T2, GCN2 domain2 (Homo sapiens, UniProt Q9P2K8); experiment: KiNativ, OCI cells live cell; format: cell-based; conditions: 2 h
T2 construct: GCN2 domain2
T2 sequence (Q9P2K8 whole entry, the tested form may be a part): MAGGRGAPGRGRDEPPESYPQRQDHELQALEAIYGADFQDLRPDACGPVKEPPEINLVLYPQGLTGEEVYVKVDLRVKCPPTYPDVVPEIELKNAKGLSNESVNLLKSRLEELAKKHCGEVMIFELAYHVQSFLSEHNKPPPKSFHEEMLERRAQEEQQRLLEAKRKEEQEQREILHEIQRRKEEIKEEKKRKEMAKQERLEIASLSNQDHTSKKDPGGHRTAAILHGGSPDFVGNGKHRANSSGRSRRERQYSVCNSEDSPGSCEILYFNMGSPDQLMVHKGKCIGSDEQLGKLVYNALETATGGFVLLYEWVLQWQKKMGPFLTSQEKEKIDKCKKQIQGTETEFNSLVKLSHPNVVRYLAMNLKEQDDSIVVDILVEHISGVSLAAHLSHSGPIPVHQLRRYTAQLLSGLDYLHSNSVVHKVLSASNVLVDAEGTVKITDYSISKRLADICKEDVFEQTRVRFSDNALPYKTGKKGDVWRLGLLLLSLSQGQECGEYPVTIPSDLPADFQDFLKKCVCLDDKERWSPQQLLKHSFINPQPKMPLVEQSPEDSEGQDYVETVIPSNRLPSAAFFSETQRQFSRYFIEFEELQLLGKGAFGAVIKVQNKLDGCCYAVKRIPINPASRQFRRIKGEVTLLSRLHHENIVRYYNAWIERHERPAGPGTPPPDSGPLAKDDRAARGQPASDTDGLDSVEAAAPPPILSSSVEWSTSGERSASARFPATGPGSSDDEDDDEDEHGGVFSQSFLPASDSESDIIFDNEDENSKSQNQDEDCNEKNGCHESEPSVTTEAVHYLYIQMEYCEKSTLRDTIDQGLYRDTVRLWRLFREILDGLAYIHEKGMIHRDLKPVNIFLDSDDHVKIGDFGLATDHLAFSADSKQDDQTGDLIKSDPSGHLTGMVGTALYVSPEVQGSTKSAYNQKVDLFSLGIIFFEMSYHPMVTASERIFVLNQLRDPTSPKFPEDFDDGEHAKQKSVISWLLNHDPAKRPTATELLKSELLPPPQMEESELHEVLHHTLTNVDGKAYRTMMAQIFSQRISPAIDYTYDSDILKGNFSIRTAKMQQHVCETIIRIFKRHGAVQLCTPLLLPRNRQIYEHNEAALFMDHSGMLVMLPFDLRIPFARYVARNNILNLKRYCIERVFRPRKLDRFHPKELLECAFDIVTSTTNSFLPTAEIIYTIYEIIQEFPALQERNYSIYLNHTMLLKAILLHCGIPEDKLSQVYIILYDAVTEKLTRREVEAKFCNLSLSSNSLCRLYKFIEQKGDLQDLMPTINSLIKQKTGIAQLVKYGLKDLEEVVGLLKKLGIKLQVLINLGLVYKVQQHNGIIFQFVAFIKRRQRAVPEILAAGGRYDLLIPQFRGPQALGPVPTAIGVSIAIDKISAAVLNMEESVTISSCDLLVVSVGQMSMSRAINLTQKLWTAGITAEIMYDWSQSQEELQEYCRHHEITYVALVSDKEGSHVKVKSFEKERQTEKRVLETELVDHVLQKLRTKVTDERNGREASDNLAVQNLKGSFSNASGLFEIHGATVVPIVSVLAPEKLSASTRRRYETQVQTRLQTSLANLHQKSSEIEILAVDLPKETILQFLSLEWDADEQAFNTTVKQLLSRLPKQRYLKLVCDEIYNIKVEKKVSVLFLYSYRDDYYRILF

MELK = MELK (Homo sapiens, UniProt Q14680); experiment: KiNativ, OCI cells live cell; format: cell-based; conditions: 2 h, labeling site Lys2, peptide […]
MAP2K6 = target: T3, MAP2K6 (Homo sapiens, UniProt P52564); experiment: KiNativ, OCI cells live cell; format: cell-based; conditions: 2 h
T3 sequence (P52564 1-334): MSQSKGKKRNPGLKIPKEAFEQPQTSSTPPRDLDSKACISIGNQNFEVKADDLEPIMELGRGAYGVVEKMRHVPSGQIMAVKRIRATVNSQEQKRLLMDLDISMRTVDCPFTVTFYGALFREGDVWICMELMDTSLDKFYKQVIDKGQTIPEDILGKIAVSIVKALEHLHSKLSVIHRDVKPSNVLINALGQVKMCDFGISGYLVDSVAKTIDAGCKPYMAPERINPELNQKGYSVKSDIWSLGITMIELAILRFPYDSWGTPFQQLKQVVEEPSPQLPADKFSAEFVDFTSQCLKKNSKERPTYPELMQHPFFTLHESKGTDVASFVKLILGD

ZAP70 = target: T4, ZAP70 (Homo sapiens, UniProt P43403); experiment: KiNativ, OCI cells live cell; format: cell-based; conditions: 2 h, labeling site Activation Loop
T4 sequence (P43403 1-619): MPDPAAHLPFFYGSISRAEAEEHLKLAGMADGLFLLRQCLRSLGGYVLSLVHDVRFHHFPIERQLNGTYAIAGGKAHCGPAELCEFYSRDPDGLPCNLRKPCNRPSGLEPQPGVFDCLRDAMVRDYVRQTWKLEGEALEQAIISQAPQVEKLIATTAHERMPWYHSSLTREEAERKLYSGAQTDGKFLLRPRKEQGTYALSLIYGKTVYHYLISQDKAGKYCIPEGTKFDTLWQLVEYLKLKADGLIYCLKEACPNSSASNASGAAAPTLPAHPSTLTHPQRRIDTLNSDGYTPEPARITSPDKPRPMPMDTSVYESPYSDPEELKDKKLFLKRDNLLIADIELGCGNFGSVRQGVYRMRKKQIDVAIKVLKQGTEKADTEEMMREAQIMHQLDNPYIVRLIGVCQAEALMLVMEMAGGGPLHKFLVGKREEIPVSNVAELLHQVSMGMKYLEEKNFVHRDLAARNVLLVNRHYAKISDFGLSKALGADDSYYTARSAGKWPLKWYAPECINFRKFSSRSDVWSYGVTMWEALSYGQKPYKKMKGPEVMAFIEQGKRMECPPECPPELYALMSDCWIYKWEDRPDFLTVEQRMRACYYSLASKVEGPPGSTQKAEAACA

MST3 = MST3 (Homo sapiens, UniProt Q9Y6E0); experiment: KiNativ, OCI cells live cell; format: cell-based; conditions: labeling site Lys2, peptide DIKAANVLLSEHGEVK
Sequence of MST3 (Q9Y6E0 whole entry): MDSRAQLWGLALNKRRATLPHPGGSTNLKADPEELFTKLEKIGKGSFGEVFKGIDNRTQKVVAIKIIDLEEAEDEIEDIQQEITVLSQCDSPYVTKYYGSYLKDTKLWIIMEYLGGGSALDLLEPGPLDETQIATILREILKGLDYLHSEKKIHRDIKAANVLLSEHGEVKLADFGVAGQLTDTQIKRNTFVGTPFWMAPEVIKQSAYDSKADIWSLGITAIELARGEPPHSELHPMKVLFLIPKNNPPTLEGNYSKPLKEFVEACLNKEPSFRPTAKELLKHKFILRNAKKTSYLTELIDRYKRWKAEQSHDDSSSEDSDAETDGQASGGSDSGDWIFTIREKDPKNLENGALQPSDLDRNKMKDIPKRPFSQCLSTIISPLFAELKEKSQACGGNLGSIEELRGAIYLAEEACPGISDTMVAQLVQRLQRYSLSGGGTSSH

OCI-AML3 cells = experiment: Viability assay; format: cell-based; conditions: Homo sapiens, OCI-AML-3, read-out: IC50 viability
Experimental: Drug treatments were carried out for 72 hours. Details are provided in the Supplemental Methods.

ARAF = ARAF (Homo sapiens, UniProt P10398); experiment: KiNativ, OCI cells live cell; format: cell-based; conditions: 2 h, labeling site Lys2, peptide […]
PEK = PEK (Homo sapiens, UniProt Q9NZJ5); experiment: KiNativ, OCI cells live cell; format: cell-based; conditions: 2 h, labeling site Lys2, peptide […]
Sequence of PEK (Q9NZJ5 30-1116): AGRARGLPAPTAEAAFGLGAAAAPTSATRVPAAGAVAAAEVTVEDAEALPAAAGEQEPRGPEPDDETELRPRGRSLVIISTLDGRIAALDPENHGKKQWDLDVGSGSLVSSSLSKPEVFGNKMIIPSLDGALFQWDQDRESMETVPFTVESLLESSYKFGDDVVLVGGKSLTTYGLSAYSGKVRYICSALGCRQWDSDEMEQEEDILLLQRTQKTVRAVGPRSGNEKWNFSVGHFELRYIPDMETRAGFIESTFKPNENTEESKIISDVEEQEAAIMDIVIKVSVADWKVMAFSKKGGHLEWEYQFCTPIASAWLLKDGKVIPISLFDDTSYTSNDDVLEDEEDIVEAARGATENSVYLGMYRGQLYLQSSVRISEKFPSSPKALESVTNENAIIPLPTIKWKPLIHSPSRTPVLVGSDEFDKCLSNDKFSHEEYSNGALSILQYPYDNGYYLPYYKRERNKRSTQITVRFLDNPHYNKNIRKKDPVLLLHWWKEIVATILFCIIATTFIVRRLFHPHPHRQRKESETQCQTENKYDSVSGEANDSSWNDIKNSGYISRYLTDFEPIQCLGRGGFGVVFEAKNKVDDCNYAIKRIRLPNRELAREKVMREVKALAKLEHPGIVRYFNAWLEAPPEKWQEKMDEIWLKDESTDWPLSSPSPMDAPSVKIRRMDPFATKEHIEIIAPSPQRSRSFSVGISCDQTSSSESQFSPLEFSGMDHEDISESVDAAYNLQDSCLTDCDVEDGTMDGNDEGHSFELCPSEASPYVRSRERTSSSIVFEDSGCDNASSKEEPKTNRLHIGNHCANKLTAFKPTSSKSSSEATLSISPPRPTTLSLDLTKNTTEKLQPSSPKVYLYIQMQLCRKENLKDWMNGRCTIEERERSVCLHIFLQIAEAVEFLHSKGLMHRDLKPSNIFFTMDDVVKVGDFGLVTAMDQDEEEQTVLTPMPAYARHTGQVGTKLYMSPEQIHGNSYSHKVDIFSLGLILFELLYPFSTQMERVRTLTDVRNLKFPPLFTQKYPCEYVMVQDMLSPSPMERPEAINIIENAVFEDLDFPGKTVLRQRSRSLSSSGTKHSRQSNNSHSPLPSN

Erk5 = Erk5 (Homo sapiens, UniProt Q13164); experiment: KiNativ, OCI cells live cell; format: cell-based; conditions: 2 h, labeling site Lys2, peptide […]
Sequence of Erk5 (Q13164 whole entry): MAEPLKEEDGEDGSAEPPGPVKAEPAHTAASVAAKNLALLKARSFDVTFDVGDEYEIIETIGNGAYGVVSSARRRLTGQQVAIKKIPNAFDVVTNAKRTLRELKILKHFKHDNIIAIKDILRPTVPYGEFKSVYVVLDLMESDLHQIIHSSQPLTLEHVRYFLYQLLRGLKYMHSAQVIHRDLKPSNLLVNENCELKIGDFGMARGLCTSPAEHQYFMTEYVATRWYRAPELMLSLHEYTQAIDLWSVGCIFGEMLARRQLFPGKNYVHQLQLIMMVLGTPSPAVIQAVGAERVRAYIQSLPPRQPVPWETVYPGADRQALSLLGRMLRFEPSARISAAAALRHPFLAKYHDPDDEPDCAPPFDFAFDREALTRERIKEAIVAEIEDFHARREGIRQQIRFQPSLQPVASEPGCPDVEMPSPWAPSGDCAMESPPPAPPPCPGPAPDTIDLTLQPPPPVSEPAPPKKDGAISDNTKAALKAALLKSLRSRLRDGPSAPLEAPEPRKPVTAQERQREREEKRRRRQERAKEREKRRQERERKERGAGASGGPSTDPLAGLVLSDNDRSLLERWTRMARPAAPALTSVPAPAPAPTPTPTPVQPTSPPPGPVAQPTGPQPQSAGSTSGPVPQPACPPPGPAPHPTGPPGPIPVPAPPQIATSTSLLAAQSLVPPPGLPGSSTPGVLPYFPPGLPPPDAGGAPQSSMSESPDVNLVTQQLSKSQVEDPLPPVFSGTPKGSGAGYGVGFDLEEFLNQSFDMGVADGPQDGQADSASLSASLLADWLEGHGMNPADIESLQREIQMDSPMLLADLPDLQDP

IKKb = target: T5, IKKb (Homo sapiens, UniProt O14920); experiment: KiNativ, OCI cells live cell; format: cell-based; conditions: 2 h
T5 sequence (O14920 1-756): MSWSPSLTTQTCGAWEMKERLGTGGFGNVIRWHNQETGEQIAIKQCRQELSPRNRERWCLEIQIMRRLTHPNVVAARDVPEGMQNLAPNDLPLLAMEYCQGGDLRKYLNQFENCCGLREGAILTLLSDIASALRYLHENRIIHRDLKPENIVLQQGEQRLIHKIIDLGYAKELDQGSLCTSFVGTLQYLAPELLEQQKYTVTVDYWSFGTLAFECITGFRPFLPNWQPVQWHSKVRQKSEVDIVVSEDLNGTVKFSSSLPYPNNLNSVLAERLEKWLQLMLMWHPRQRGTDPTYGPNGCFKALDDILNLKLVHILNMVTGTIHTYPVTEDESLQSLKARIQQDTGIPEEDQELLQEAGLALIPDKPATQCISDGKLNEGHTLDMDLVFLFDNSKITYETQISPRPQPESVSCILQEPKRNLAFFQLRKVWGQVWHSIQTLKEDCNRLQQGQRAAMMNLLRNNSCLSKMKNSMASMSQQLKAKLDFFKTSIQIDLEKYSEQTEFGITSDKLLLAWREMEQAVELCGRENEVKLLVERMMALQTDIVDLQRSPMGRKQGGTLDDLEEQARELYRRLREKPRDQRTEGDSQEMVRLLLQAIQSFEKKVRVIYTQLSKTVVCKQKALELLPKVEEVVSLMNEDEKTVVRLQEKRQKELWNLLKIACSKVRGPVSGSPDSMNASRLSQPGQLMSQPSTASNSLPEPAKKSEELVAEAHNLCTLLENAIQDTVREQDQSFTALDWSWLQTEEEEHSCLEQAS

GSK3A = GSK3A (Homo sapiens, UniProt P49840); experiment: KiNativ, OCI cells live cell; format: cell-based; conditions: 2 h, labeling site Lys2, peptide […]
Sequence of GSK3A (P49840 whole entry): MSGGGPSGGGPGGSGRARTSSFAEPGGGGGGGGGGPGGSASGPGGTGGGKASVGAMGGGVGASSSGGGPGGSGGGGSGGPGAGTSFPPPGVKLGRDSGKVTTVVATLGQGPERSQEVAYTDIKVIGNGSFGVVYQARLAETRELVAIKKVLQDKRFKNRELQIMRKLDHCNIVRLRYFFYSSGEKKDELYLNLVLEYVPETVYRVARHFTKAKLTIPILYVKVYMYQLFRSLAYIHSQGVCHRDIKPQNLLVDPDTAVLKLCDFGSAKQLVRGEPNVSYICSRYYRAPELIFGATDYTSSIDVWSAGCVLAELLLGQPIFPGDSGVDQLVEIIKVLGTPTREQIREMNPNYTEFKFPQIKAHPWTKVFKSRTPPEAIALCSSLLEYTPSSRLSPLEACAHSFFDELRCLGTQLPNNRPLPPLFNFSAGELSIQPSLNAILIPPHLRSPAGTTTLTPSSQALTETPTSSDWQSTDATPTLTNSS

Question: What does the source list for `CN1CCN(Cc2ccc(Nc3ncc(Cl)c(Nc4ccccc4S(=O)(=O)N(C)C)n3)cc2)CC1` [TP-0903]?
Answer: Inhibition (IKKe, TBK1): 64.1%; Inhibition (JAK2 domain2): 36.2%; inhibition at 0.1 µM (MAST3): -0.112%; inhibition at 0.1 µM (NEK3): -11.9%; inhibition at 0.1 µM (GCN2 domain2; labeling site Lys1, peptide LDGCCYAVKR): -6.9%; inhibition at 0.1 µM (GCN2 domain2; labeling site Lys2, peptide DLKPVNIFLDSDDHVK): -2.8%; inhibition at 0.1 µM (MELK): 13.5%; inhibition at 0.1 µM (MAP2K6; labeling site Activation Loop, peptide MCDFGISGYLVDSVAKTIDAGCKPYMAPER): 8.8%; inhibition at 0.1 µM (MAP2K6; labeling site Lys1, peptide HVPSGQIMAVKR): 28%; inhibition at 0.1 µM (MAP2K6; labeling site Lys2, peptide DVKPSNVLINALGQVK): 18.6%; inhibition at 0.1 µM (ZAP70; peptide ISDFGLSKALGADDSYYTAR): -29.4%; inhibition at 0.1 µM (ZAP70; peptide […], read-out: Inhibition): -4%; Inhibition (MST3): 35.2%; IC50 (OCI-AML3 cells): 37 nM; inhibition at 0.1 µM (ARAF): -0.7%; inhibition at 0.1 µM (PEK): -9.6%; inhibition at 0.1 µM (Erk5): 86.8%; inhibition at 0.1 µM (IKKb; labeling site Lys1, peptide WHNQETGEQIAIKQCR): -16%; inhibition at 0.1 µM (IKKb; labeling site Lys2, peptide DLKPENIVLQQGEQR): 14.6%; inhibition at 0.1 µM (GSK3A): 22.6%
